According to PubChem BioAssay (NCI):
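Test compounds were applied to cells in 96-well plates for 48 hours at 5 doses. At the GI50, growth is halved. Definition used: TGI = concentration required for complete inhibition of growth.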

Experiments:
Test in all cases: inhibition of tumour cell growth, NCI panel, 48 h
786-0 renal = tested on: 786-0 renal
A498 renal = tested on: A498 renal
A549 NSCLC = tested on: A549 NSCLC
ACHN renal = tested on: ACHN renal
CAKI-1 renal = tested on: CAKI-1 renal
CCRF-CEM leukemia = tested on: CCRF-CEM leukemia
COLO 205 colon = tested on: COLO 205 colon
DU-145 prostate = tested on: DU-145 prostate
EKVX NSCLC = tested on: EKVX NSCLC
HCC-2998 colon = tested on: HCC-2998 colon
HCT-116 colon = tested on: HCT-116 colon
HCT-15 colon = tested on: HCT-15 colon
HL-60(TB) leukemia = tested on: HL-60(TB) leukemia
HOP-62 NSCLC = tested on: HOP-62 NSCLC
HOP-92 NSCLC = tested on: HOP-92 NSCLC
HS 578T breast = tested on: HS 578T breast
HT29 colon = tested on: HT29 colon
IGROV1 ovarian = tested on: IGROV1 ovarian
K-562 leukemia = tested on: K-562 leukemia
KM12 colon = tested on: KM12 colon
LOX IMVI melanoma = tested on: LOX IMVI melanoma
M14 melanoma = tested on: M14 melanoma
MALME-3M melanoma = tested on: MALME-3M melanoma
MCF7 breast = tested on: MCF7 breast
MDA-MB-231 breast = tested on: MDA-MB-231 breast
MDA-MB-435 = tested on: MDA-MB-435
MOLT-4 leukemia = tested on: MOLT-4 leukemia
NCI-H23 lung = tested on: NCI-H23 lung
NCI-H460 lung = tested on: NCI-H460 lung
NCI-H522 lung = tested on: NCI-H522 lung
NCI/ADR-RES ovarian = tested on: NCI/ADR-RES ovarian
OVCAR-3 ovarian = tested on: OVCAR-3 ovarian
OVCAR-4 ovarian = tested on: OVCAR-4 ovarian
OVCAR-5 ovarian = tested on: OVCAR-5 ovarian
OVCAR-8 ovarian = tested on: OVCAR-8 ovarian
PC-3 prostate = tested on: PC-3 prostate
RPMI-8226 leukemia = tested on: RPMI-8226 leukemia
RXF 393 renal = tested on: RXF 393 renal
SF-268 CNS = tested on: SF-268 CNS
SF-295 CNS = tested on: SF-295 CNS
SF-539 CNS = tested on: SF-539 CNS
SK-MEL-2 melanoma = tested on: SK-MEL-2 melanoma
SK-MEL-28 melanoma = tested on: SK-MEL-28 melanoma
SK-MEL-5 melanoma = tested on: SK-MEL-5 melanoma
SK-OV-3 ovarian = tested on: SK-OV-3 ovarian
SN12C renal = tested on: SN12C renal
SNB-19 CNS = tested on: SNB-19 CNS
SNB-75 CNS = tested on: SNB-75 CNS
SR leukemia = tested on: SR leukemia
SW-620 colon = tested on: SW-620 colon
T-47D breast = tested on: T-47D breast
TK-10 renal = tested on: TK-10 renal
U251 CNS = tested on: U251 CNS
UACC-257 melanoma = tested on: UACC-257 melanoma
UACC-62 melanoma = tested on: UACC-62 melanoma
UO-31 renal = tested on: UO-31 renal

CC/C=C\C/C=C/C=C1/C(=O)C=C[C@@H]1C/C=C\CCCC(=O)OC
GI50 (786-0 renal): 2.71 µM
TGI (786-0 renal): 6.91 µM
GI50 (A498 renal): 8.68 µM
TGI (A498 renal): 23 µM
GI50 (A549 NSCLC): 5.71 µM
TGI (A549 NSCLC): 52.6 µM
GI50 (ACHN renal): 1.97 µM
TGI (ACHN renal): 3.99 µM
GI50 (CAKI-1 renal): 3.22 µM
TGI (CAKI-1 renal): 10.7 µM
GI50 (CCRF-CEM leukemia): 1.25 µM
TGI (CCRF-CEM leukemia): 8.7 µM
GI50 (COLO 205 colon): 2.14 µM
TGI (COLO 205 colon): 5.23 µM
GI50 (DU-145 prostate): 4.55 µM
TGI (DU-145 prostate): 17.4 µM
GI50 (EKVX NSCLC): 3.89 µM
TGI (EKVX NSCLC): 20.1 µM
GI50 (HCC-2998 colon): 2.03 µM
TGI (HCC-2998 colon): 3.62 µM
GI50 (HCT-116 colon): 0.631 µM
TGI (HCT-116 colon): 2.43 µM
GI50 (HCT-15 colon): 2.2 µM
TGI (HCT-15 colon): 7.89 µM
GI50 (HL-60(TB) leukemia): 2.24 µM
TGI (HL-60(TB) leukemia): 12.5 µM
GI50 (HOP-62 NSCLC): 2.45 µM
TGI (HOP-62 NSCLC): 5.73 µM
GI50 (HOP-92 NSCLC): 3.07 µM
TGI (HOP-92 NSCLC): 8.49 µM
GI50 (HS 578T breast): 15.1 µM
TGI (HS 578T breast): > 100 µM
GI50 (HT29 colon): 2.21 µM
TGI (HT29 colon): 5.57 µM
GI50 (IGROV1 ovarian): 2.95 µM
TGI (IGROV1 ovarian): 10.2 µM
GI50 (K-562 leukemia): 1.38 µM
TGI (K-562 leukemia): 20.9 µM
GI50 (KM12 colon): 2.24 µM
TGI (KM12 colon): 6.59 µM
GI50 (LOX IMVI melanoma): 0.417 µM
TGI (LOX IMVI melanoma): 1.79 µM
GI50 (M14 melanoma): 3.22 µM
TGI (M14 melanoma): 11.8 µM
GI50 (MALME-3M melanoma): 2.5 µM
TGI (MALME-3M melanoma): 6.64 µM
GI50 (MCF7 breast): 0.5 µM
TGI (MCF7 breast): 12.5 µM
GI50 (MDA-MB-231 breast): 3.55 µM
TGI (MDA-MB-231 breast): 11.3 µM
GI50 (MDA-MB-435): 2.05 µM
TGI (MDA-MB-435): 5.08 µM
GI50 (MOLT-4 leukemia): 1.36 µM
TGI (MOLT-4 leukemia): 11.2 µM
GI50 (NCI-H23 lung): 1.9 µM
TGI (NCI-H23 lung): 4.45 µM
GI50 (NCI-H460 lung): 3.07 µM
TGI (NCI-H460 lung): 8.85 µM
GI50 (NCI-H522 lung): 1.78 µM
TGI (NCI-H522 lung): 4.24 µM
GI50 (NCI/ADR-RES ovarian): 3.32 µM
TGI (NCI/ADR-RES ovarian): > 100 µM
GI50 (OVCAR-3 ovarian): 1.54 µM
TGI (OVCAR-3 ovarian): 6.35 µM
GI50 (OVCAR-4 ovarian): 4.24 µM
TGI (OVCAR-4 ovarian): 17.3 µM
GI50 (OVCAR-5 ovarian): 3.32 µM
TGI (OVCAR-5 ovarian): 11.1 µM
GI50 (OVCAR-8 ovarian): 2.75 µM
TGI (OVCAR-8 ovarian): > 100 µM
GI50 (PC-3 prostate): 2.44 µM
TGI (PC-3 prostate): 7.1 µM
GI50 (RPMI-8226 leukemia): 2.46 µM
TGI (RPMI-8226 leukemia): 12.8 µM
GI50 (RXF 393 renal): 1.94 µM
TGI (RXF 393 renal): 3.84 µM
GI50 (SF-268 CNS): 3.81 µM
TGI (SF-268 CNS): 24.7 µM
GI50 (SF-295 CNS): 3.5 µM
TGI (SF-295 CNS): 14 µM
GI50 (SF-539 CNS): 3.04 µM
TGI (SF-539 CNS): 10 µM
GI50 (SK-MEL-2 melanoma): 3.35 µM
TGI (SK-MEL-2 melanoma): 12.5 µM
GI50 (SK-MEL-28 melanoma): 2.33 µM
TGI (SK-MEL-28 melanoma): 6.42 µM
GI50 (SK-MEL-5 melanoma): 1.99 µM
TGI (SK-MEL-5 melanoma): 4.05 µM
GI50 (SK-OV-3 ovarian): 9.25 µM
TGI (SK-OV-3 ovarian): 49.9 µM
GI50 (SN12C renal): 2.7 µM
TGI (SN12C renal): 7.79 µM
GI50 (SNB-19 CNS): 5.06 µM
TGI (SNB-19 CNS): 19.3 µM
GI50 (SNB-75 CNS): 25 µM
TGI (SNB-75 CNS): > 100 µM
GI50 (SR leukemia): 0.398 µM
TGI (SR leukemia): 15.5 µM
GI50 (SW-620 colon): 1.11 µM
TGI (SW-620 colon): 7.68 µM
GI50 (T-47D breast): 3.9 µM
TGI (T-47D breast): 24 µM
GI50 (TK-10 renal): 4.13 µM
TGI (TK-10 renal): 15.4 µM
GI50 (U251 CNS): 2.35 µM
TGI (U251 CNS): 6.83 µM
GI50 (UACC-257 melanoma): 3.27 µM
TGI (UACC-257 melanoma): 11.4 µM
GI50 (UACC-62 melanoma): 2.24 µM
TGI (UACC-62 melanoma): 5.17 µM
GI50 (UO-31 renal): 1.64 µM
TGI (UO-31 renal): 3.6 µM
